Measurements taken from US20240189279A1, “IMMUNOMODULATORY COMPOSITIONS AND METHODS OF USE THEREOF” (THE TEXAS A&M UNIVERSITY SYSTEM, priority 2022, published 2024).

How the values were obtained:
liver proteome = assay: Liver untargeted proteomics in WD mice; format: in vivo, mice (male B6 129SF1/J)
AMPK = AMPK Western blot in RAW 264.7 macrophages stimulated with palmitate and LPS; format: cell-based, murine; conditions: RAW 264.7, 1 mM I3A pre-treatment
[1] = I3A levels in fecal material, liver and serum after I3A in drinking water; format: in vivo, mice (male B6 129SF1/J); conditions: WD and sugar water containing I3A vs same WD and SW without I3A
Excerpt: Animal experiments. Male B6 129SF1/J mice at 6 weeks of age were obtained from Jackson Laboratories (Bar Harbor, ME). Mice were acclimatized to the animal facility for one week. At the start of the experiment, mice were randomly divided into four groups (n=10 for each group). Three of the four groups were fed ad libitum a Western diet (WD) with 40% Kcal from fat and containing 0.15% cholesterol (D12079B, Research Diets) and a sugar water (SW) solution (23.1 g/L d-fructose+18.9 g/L d-glucose) as previously described (DIAMOND model (15)). […] The WD group was fed WD and drank sugar water. […] The treatments were continued for another 8 weeks. Water bottles containing SW and I3A or only SW were changed every other day. A fourth group of mice was fed a low-fat control diet (D12450B, Research Diets) and normal water for 16 weeks (CN group) (FIG. 9A). FIG. 9A presents the study design. Mice belonging to the same treatment group were housed together (5 mice/cage). Mice were maintained on 12:12-h light-dark cycles. All procedures were performed in accordance with Texas A&M University Health Sciences Center Institutional Animal Care and Use Committee guidelines under an approved animal use protocol (AUP #2017-0145).
Sample collection. […] FIG. 9B presents the sampling scheme. All fecal pellets were flash frozen in liquid nitrogen after collection. […]

In the case of `O=C([O-])Cc1c[nH]c2ccccc12.[Na+]` [I3A, Indole-3-acetate sodium salt], the “liver protein abundance profile (PLS-DA)” value (liver proteome; WD-50 group vs WD) is reported as “not significantly different from the WD group”, the “liver protein abundance profile (PLS-DA)” value (liver proteome; WD-100 group vs WD, p<0.001) is reported as “significantly different from the WD group” and the p-AMPK level (AMPK) is reported as “upregulated p-AMPK to baseline levels”. For the same molecule, the “total AMPK level” value (AMPK) was “without altering total AMPK” and the “I3A levels in fecal material, liver and serum” value [1] was “increased I3A levels in fecal material, the liver and serum”.
